Tests used:
[1] = test system: maximal electroshock seizure (MES-induced seizure spread); test: Maximal electroshock seizure (MES) test, rat; type: in vivo, rats; details: for Rat Activity (oral) (number of rats active/total number of rats tested): 30 mg/kg
Protocol: Anticonvulsant activity was determined using the standard MES model for generalized tonic-clonic seizures (Swinyard E A, Woodhead J H, White H S, Franklin M R, In: […], Meldrum […], Dreifuss F E eds. Antiepileptic drugs. New York: Raven Press, 1989:85-102). An electric stimulus of 0.2 sec duration, 60 Hz, 50 mA in mice, 150 mA in rats, was delivered via corneal electrodes primed with an electrolyte solution containing an anesthetic agent (0.5% tetracaine hydrochloride in 0.9% saline). Mice or rats were randomly selected into control and test groups. The animals were dosed with vehicle or test compound, at varying concentrations. Mice were subjected to the electrical stimulus at 30 minutes and 4 hours following administration of test compound. […] Abolition of the hind limb tonic extensor component was an indication of the test compound's ability to inhibit MES-induced seizure spread. […] A probit analysis (Finney D J. Probit Analysis. Cambridge, England: Cambridge University Press, 1971) was used to calculate the ED50. Following the rat procedure described above, representative compounds of the instant invention were tested for biological activity in the rat, with results as listed in Table 6 and 7. Rat activity is listed as number of rats active/total number of rats tested @ time after administration of the test compound.

[2] = test system: maximal electroshock seizure (MES-induced seizure spread); test: Maximal electroshock seizure (MES) test, mouse; type: in vivo, mice
Protocol: Anticonvulsant activity was determined using the standard MES model for generalized tonic-clonic seizures (Swinyard E A, Woodhead J H, White H S, Franklin M R, In: Levy R H, Mattson R H, Meldrum B S, Penry J K, Dreifuss F E eds. Antiepileptic drugs. New York: Raven Press, 1989:85–102).
An electric stimulus of 0.2 sec duration, 60 Hz, 50 mA in mice, 150 mA in rats, was delivered via corneal electrodes primed with an electrolyte solution containing an anesthetic agent (0.5% tetracaine hydrochloride in 0.9% saline).
Mice or rats were randomly selected into control and test groups. The animals were dosed with vehicle or test compound, at varying concentrations. […] Rats were subjected to electrical stimulus at time intervals between 15 minutes and 4 hours following administration of test compound. Abolition of the hind limb tonic extensor component was an indication of the test compound's ability to inhibit MES-induced seizure spread.
The ED50 (the calculated dose required to block the hindlimb tonic-extensor component of the maximal electroshock seizure in 50% of the animals tested) was calculated. A probit analysis (Finney D J. Probit Analysis. Cambridge, England: Cambridge University Press, 1971) was used to calculate the ED50.
Following the mouse procedure described above, representative compounds of the instant invention were tested for biological activity in the mouse, with results as listed in Table 5. Mouse activity is listed as number of mice active/total number of mice tested @ time after administration of the test compound.

[3] = test system: simple and complex partial seizure and secondarily generalized seizures; details: cited from earlier work
[4] = 100 mg/kg, @ 0.5 hrs after administration

Compound: CC1(C)OC2[C@@H](CO[C@@]3(COS(=O)(=O)NS(=O)(=O)C(F)(F)F)OC(C)(C)O[C@@H]23)O1 (stereo partly drawn) [Compound 30, N-trifluoromethylsulfonyl-2,3:4,5-bis-O-(1-methylethylidene)-β-D-fructopyranose sulfamate]
- ED50 ([1]; @ 4 hrs): 2.38 @ 4 hrs m/k
- Rat Activity (oral) (number of rats active/total number of rats tested) ([1]; @ 0.25 hrs): 3/4 @ 0.25 hrs
- Rat Activity (oral) (number of rats active/total number of rats tested) ([1]; @ 0.5 hrs): 4/4 @ 0.5 hrs
- Rat Activity (oral) (number of rats active/total number of rats tested) ([1]; @ 1 hr): 3/4 @ 1 hr
- Rat Activity (oral) (number of rats active/total number of rats tested) ([1]; @ 2 hrs): 4/4 @ 2 hrs
- Rat Activity (oral) (number of rats active/total number of rats tested) ([1]; @ 4 hrs): 4/4 @ 4 hrs
- Mouse Activity (number of mice active/total number of mice tested) [2, 4]: 2/3 @ 0.5 hrs
- Mouse Activity (number of mice active/total number of mice tested) ([2]; 100 mg/kg, @ 4 hrs after administration): 3/3 @ 4 hrs
- Mouse Activity (number of mice active/total number of mice tested) ([2]; 300 mg/kg, @ 0.5 hrs after administration): 1/1 @ 0.5 hrs
- Mouse Activity (number of mice active/total number of mice tested) ([2]; 300 mg/kg, @ 4 hrs after administration): 1/1 @ 4 hrs
- Mouse Activity ([2]; dosage 30 mg/kg): No activity

Compound: CC1(C)OC2COC3(COS(=O)(=O)NC(c4ccccc4)c4ccccc4)OC(C)(C)OC3C2O1 (stereo not shown) [Compound 37]
- Rat Activity (oral) (number of rats active/total number of rats tested) ([1]; @ 1 hr): 1/4 @ 1 hr
- Rat Activity (oral) (number of rats active/total number of rats tested) ([1]; @ 2 hrs): 2/4 @ 2 hrs
- Rat Activity (oral) (number of rats active/total number of rats tested) ([1]; @ 4 hrs): 1/4 @ 4 hrs
- Mouse Activity (number of mice active/total number of mice tested) [2, 4]: 0/3 @ ½ hr,
- Mouse Activity (number of mice active/total number of mice tested) ([2]; 100 mg/kg, @ 1 hr after administration): 0/3 @ ½ hr,
- Mouse Activity (number of mice active/total number of mice tested) ([2]; 100 mg/kg, @ 2 hrs after administration): 1/3 @ ¼ hrs,
- Mouse Activity (number of mice active/total number of mice tested) ([2]; 100 mg/kg, @ 6 hrs after administration): 1/3 @ ¼ hrs,
- Mouse Activity (number of mice active/total number of mice tested) ([2]; 100 mg/kg, @ ¼ hrs after administration): 1/3 @ ¼ hrs,
- Mouse Activity ([2]; dosage 30 mg/kg): No Activity
- Mouse Activity ([2]; dosage 300 mg/kg): No activity

Compound: CC(C)Oc1ccccc1N1CCN(S(=O)(=O)OCC23OCC4OC(C)(C)OC4C2OC(C)(C)O3)CC1 (stereo not shown) [Compound 39]
- Rat Activity (oral) (number of rats active/total number of rats tested) ([1]; @ 4 hrs): 1/4 @ 4 hrs
- Mouse Activity ([2]; dosage 30, 100, 300 mg/kg): No activity

Compound: CC1(C)O[C@@H]2[C@@H](CO[C@@]3(COS(N)(=O)=O)OC(C)(C)O[C@@H]23)O1 [TPM, 2,3:4,5-bis-O-(1-methylethylidene)-β-D-fructopyranose sulfamate, reference compound]
- efficacy in clinical trials of human epilepsy [3]: effective as adjunctive therapy or as monotherapy
- ED50 ([2]; @ 2 hrs): ED50 = 33 m/k
